Experimental findings from patent US11523610B2, “Regulating plant growth using a diapocarotenoid” (King Abdullah University of Science and Technology, priority 2018, dated 2022) are described below.

Assay [1] concerns PIN3. Nature of the assay: PIN3-GFP fluorescence in ANR primordia (pPIN3::PIN3-GFP marker line). Particulars: 20 μM anchorene. The class given is in vivo, Arabidopsis. How it is done:
For fluorescence intensity quantification of pDR5Rev::GFP and pPIN3::PIN3-GFP marker lines, ImageJ software (rsbweb.nih.gov/ij/) was used after taking confocal microscopy photos. All calculations are background subtracted.
To determine if the effect of anchorene on ANR development is caused by changes in auxin distribution, the activity of anchorene in the presence of NPA was evaluated. […] Vertical grown 5 DAG seedlings on half MSO with indicated treatments were analyzed. The orientation of root growth was measured and then was assigned to one of twelve 30° sectors. […] The auxin efflux carrier PIN3 plays an important role in LR initiation and emergence. Therefore, the effect of anchorene on PIN3 using the pPIN3::PIN3-GFP marker line was examined.

The test system of assay [2] is maize. The assay can be described thus: Maize hydroponic growth with anchorene. Format: in vivo. On the procedure: FIGS. 20A-C show anchorene promotes root growth in maize according to one or more embodiments of the present disclosure. (A) represents the timeline for the hydroponic system for maize growing and anchorene treatment. […] (C) is a histogram quantifying the root and shoot length (cm) of maize seedlings with or without anchorene treatment
Arabidopsis is a dicot model plant. To test the effect of anchorene on monocot plant and crops, the biological functions of anchorene was evaluated on two important crops, rice and maize, under hydroponic conditions. Excitingly, a clear effect of anchorene on rice primary root and crown root growth (FIGS. 19B-E). A clear effect on shoot growth was not observed during this period, which might indicate anchorene specifically regulates root architecture. Similar effect was also examined in maize (FIGS. 20B-C). […] Root growth promoting not only could better anchor the plant, but also increase the volume of the plant root which will facilitate the water and nutrient absorption for the plant.

Assay [3] has as its system Arabidopsis seedlings (lateral roots). Nature of the assay: Lateral root emergence and lateral root capacity. Format: in vivo. An excerpt:
(§1) ANRs were counted in seedlings vertically grown on half strength MS (with 0.5% sucrose +1% agar, 0.5 g/L MES, pH 5.7) media 8 days post-stratification (dps) using a dissection microscope. To investigate ANR formation after root apical meristems (RAM) excision (ANR-RE), RAM of seedlings were excised using sterile scalpels at 5 dps and then grown for another 3 days prior to counting the number of emerged ANRs. RAM of seedlings were excised at 8 dps and then grown for another 3 days prior to counting the number of emerged LRs. For determining the effect of anchorene on lateral roots, the number of emerged lateral roots were counted using a dissection microscope at 8 dps. For primary root length measurements, seedlings were measured using the publicly available ImageJ software (downloaded from rsbweb.nih.gov/ij/) after taking digital photographs. For adventitious root assay, the number of emerged adventitious roots per plant were counted after 5 days of treatment on plates with or without anchorene.

Assay [4] concerns dark grown Arabidopsis seedlings. The assay can be described thus: Adventitious root assay. Format: in vivo. Particulars: 5, 10, or 20 μM anchorene, 5 days.
Text: as §1
4-day-old dark grown Arabidopsis seedlings were transferred to plates with 5, 10, or 20 μM anchorene, or without. After 5 additional days of growth, the number of adventitious roots was determined for each seedling.

Assay [5] relates to Arabidopsis root growth (Col-0 seedlings). Nature of the assay: Primary root length of Arabidopsis seedlings on treated half MS agar plates. The class given is in vivo. On the procedure:
β-cyclocitral, β-ionone and D′orenone (β-Apo-13-caroteneone) (FIG. 1A) were purchased from Buchem (Netherlands). Diapo1, Diapo2, Diapo3, Diapo4, Diapo5, and Diapo6 (FIG. 1B) were synthesized by Buchem (Netherlands). Diapo3 was also synthesized together with D6-anchorene and anchorene derivatives according to the protocol of SCHEME 2. Apocarotenoids and diapocarotenoids were dissolved in acetone to make stock solutions (10 mM). For the screening experiments, each chemical was diluted in half strength Murashige and Skoog (MS) media (with 0.5% sucrose+1% agar, 0.5 g/L MES, pH 5.7) to reach indicated concentrations of 25 μM and 5 μM. A stock solution of 10 mM GR24 (Chiralix, Netherlands) was also made by diluting GR24 in acetone. Stock solutions of D15 (100 mM), Norflurazone (5 mM), and CPTA (50 mM) were made in dimethyl sulfoxide (DMSO). For experiments, these compounds were diluted in concentrations of 125 μM D15, 500 nM Norflurazone, or 100 μM CPTA, respectively. 1-Naphthaleneacetic acid (NAA) and N-1-Naphthylphthalamic Acid (NPA) were purchased from Sigma-Aldrich (Germany) and dissolved in water to make 1 mM stock solutions. For NAA and NPA treatments, media containing 0.1 μM NAA and 1 μM NPA were used. Unless otherwise noted, all commercially available compounds were used as provided without further purification.
Sterilized Col-0 and mutants seeds were kept at 4° C. in darkness for 3 days to stimulate seed germination, and then sown on half strength MSO plates (with 0.5% sucrose +1% agar, 0.5g/L MES, pH 5.7) supplemented with the indicated chemicals as described below or in the Figures. Plates were vertically grown in PERCIVAL® growth chambers under long day (16 h light/8 h dark, 22° C., 60% relative humidity, light density: 4000 LUX) LED white light [HYPERIKON® 16 W LED Light Bulb A21, 16 W (100 W Equivalent), CRI92, 1620 Lumens, 4000K (Daylight Glow)] conditions. Light fluorescence rates were measured using a digital LUX meter ([…]® 5025).
as §1
Six previously identified or predicted diapocarotenoids with chain lengths ranging from C9 to C15 (Diapo1-6) (FIG. 1B) and 3 apocarotenoids (FIG. 1C) were selected to identify new carotenoid-derived signals involved in root development). These compounds were selected because they are available and stable at ambient conditions. Diapo1 (C9) is the expected product formed upon cleavage of all-trans-β-apo-10′ carotenal. Diapo2 (C10) results from cleaving the C7, C8 and C15, C15′ double bonds in different carotenoids and is produced by cyanobacterial retinal-forming enzymes from Cm-apocarotenoids. Diapo3 (C10) is a structural isomer of Diapo2 and a predicted cleavage product that can be formed by cutting the C11, C12 and C11′, C12′ bonds in almost all plant carotenoids (FIGS. 1A, 1B and 17). Diapo4 (C12) results from cleaving the C7, C8 and C13′, C14′ bonds in many carotenoids, and is formed by the CCD1 from apo-10′-lycopenal.

“Also recorded” adds a separate entry of the source.

For `C\C(C=O)=C/C=C/C=C(\C)C=O` [anchorene, 12,12′-diapocarotene-12,12′-dial], the “PIN3 levels (PIN3-GFP fluorescent intensity in ANR primordia)” value in assay [1] was “significantly increased”. Moreover, the “growth of primary root and lateral roots in maize” value in assay [2] was “greatly promoted”. The lateral root emergence entry in assay [3] (5 and 10 μM anchorene, 8 dps) is recorded as “no effect; also recorded: did not affect”. Besides, the “LR capacity in untreated seedlings” value in assay [3] (LR No. after RAM excision, 20 μM anchorene) is “inhibits LR capacity”. For the same compound, in assay [3] (LR No. after RAM excision, 20 μM anchorene and 100 μl D15), the “LR formation (LR capacity) after D15 treatment” value is “no significant effect”. The LR length result in assay [3] (anchorene application (FIGS. 3E-F)) was “did not affect”. Also, the “number of adventitious roots” value in assay [4] was “significantly increases”. Moreover, the “inhibition of primary root growth” value in assay [5] (25 μM, 7 dps) is “weak inhibition”. In assay [5] (8 DAG Col-0 seedlings, different concentrations of anchorene (FIG. 3F)), the “inhibition of primary root length” value was “minor inhibition; also recorded: weak inhibitory effect”.
